According to PMC8707461, “In Vitro and In Vivo Inhibition of MATE1 by Tyrosine Kinase Inhibitors” (Pharmaceutics, 2021):
Where “and” joins values, the source holds several entries; their conditions need not be identical. Identical values can stand only once. Like-named read-outs stand apart in the source and are kept apart here. Each block holds one compound with its values, some of them ahead of it.

Legend:
MATE1 [1] = target: T1, MATE1 (Homo sapiens, UniProt Q96FL8); assay: [14C]TEA uptake in HEK293 cells overexpressing human MATE1; settings: for inhibition of MATE1-mediated uptake of TEA (in words): TKI 10 µM; for inhibition at 10 µM: human
T1 sequence (Q96FL8 1-570): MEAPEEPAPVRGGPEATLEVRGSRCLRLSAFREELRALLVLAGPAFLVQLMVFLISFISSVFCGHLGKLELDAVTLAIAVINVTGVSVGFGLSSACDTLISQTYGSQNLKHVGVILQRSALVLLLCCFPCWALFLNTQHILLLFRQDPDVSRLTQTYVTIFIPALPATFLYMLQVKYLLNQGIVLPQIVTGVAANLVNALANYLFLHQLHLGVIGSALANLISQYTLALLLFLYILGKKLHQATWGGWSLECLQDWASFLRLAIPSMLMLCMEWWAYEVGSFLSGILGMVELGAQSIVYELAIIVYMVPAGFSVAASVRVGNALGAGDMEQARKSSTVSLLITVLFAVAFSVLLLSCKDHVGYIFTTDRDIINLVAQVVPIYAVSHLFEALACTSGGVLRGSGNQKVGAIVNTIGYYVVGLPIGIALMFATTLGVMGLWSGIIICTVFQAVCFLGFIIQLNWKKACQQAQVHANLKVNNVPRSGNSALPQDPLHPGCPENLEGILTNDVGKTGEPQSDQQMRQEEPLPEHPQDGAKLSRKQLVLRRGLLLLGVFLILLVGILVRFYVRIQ
Experimental: (§1) Uptake experiments in HEK293 cells overexpressing mouse (m) and human (h) OCT2 or MATE1 were performed with radiolabeled tetraethylammonium (TEA) as the model substrate, using standard methods in the presence or absence of TKIs. The cell culture and uptake conditions for cells expressing mMATE1 or hMATE1 were described previously. […] Since the inhibitory potential of various xenobiotics against OCT2 and MATE1 is dependent on preincubation with perpetrator drugs, a 15-min preincubation period with the TKIs was employed unless stated otherwise. All results were normalized to uptake values in cells transfected with an empty vector or DMSO-treated groups.
(§2) MATE1-overexpressed cells were pre-incubated with transport media containing 30 mM ammonium chloride for 20 min at 37 °C following previously published protocol (pH 7.4 for hMATE1 [17, 18, 19] and pH 8.4 for mMATE1 [20, 21]) to ensure interactions can be evaluated between outward-facing MATE1 and substrate uptake before adding inhibitors. Then, preincubation media was removed and cells were incubated with transport media (NH4Cl free) containing radiolabeled compounds. […] The uptake of TEA and metformin was measured by liquid scintillation counting, as described previously. For uptake studies involving platinum drugs, cells were collected with TrypLE, and the pellets were lysed overnight in 0.2% nitric acid. After sonication, total platinum levels were determined by flameless atomic absorption spectrometry.

human OCT2 = target: T2, human OCT2 (Homo sapiens, UniProt O15244); assay: [14C]TEA uptake in HEK293 cells stably transfected with human OCT2; format: cell-based; settings: TKI 10 µM
T2 construct: host or cells: HEK293 (Flp-In system, pcDNA5/FRT)
T2 sequence (O15244 1-555): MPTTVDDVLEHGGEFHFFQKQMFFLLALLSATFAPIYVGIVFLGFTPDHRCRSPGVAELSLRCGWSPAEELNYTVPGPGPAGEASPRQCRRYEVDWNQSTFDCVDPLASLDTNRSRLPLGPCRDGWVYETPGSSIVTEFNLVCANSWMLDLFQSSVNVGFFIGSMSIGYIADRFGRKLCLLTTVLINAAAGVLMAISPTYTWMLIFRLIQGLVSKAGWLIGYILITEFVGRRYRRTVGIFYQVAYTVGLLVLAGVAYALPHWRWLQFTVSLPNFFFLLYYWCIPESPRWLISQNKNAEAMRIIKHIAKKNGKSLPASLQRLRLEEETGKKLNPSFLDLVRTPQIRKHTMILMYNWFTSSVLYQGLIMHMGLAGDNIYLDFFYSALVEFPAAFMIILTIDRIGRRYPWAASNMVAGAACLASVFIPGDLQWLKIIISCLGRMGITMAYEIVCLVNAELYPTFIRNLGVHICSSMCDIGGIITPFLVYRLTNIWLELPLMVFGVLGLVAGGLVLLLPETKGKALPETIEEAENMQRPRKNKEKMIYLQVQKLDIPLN
Experimental: as §1, §2

MATE1 [2] = settings: cited from earlier work
MATE1 gene = MATE1 gene expression by RT-PCR in MATE1-overexpressing cells exposed to TKIs; format: cell-based, human
Description: RNA was extracted using the Qiagen kit from treated cells in 12-well plates or kidney tissues obtained from untreated or treated mice. Taqman primers Hs00217320_m1 and Mm00840361_m1 were obtained from Thermo Fisher Scientific (Waltham, MA, USA) and used for the hMATE1 and mMATE1 genes. The primers Hs02786624_g1 and Mm99999915_g1 were used as the house-keeping control genes for hGAPDH and mGAPDH, respectively.

[3] = test system: human OCT2, or MATE1 transporters; settings: dasatinib 10 µM, oxaliplatin 50 µM
Experimental: as §1
as §2, with “For uptake studies involving platinum drugs, cells were collected with TrypLE, and the pellets were lysed overnight in 0.2% nitric acid.” left out

[4] = test system: mouse OCT2, or MATE1 transporters; settings: dasatinib 10 µM, oxaliplatin 50 µM
Experimental: as §1
as §2, with “For uptake studies involving platinum drugs, cells were collected with TrypLE, and the pellets were lysed overnight in 0.2% nitric acid.” left out

MATE1 [5] = assay: Plasma N-methylnicotinamide (NMN) as MATE1 biomarker in mice after dasatinib; format: in vivo, mouse; settings: wild-type mice, dasatinib 15 mg/kg oral
[6] = parameters: method as in PMID 18787054; settings: cited from earlier work
mouse MATE1 = target: T3, mouse MATE1 (Mus musculus, UniProt Q8K0H1); assay: cell-based
T3 sequence (Q8K0H1 1-567): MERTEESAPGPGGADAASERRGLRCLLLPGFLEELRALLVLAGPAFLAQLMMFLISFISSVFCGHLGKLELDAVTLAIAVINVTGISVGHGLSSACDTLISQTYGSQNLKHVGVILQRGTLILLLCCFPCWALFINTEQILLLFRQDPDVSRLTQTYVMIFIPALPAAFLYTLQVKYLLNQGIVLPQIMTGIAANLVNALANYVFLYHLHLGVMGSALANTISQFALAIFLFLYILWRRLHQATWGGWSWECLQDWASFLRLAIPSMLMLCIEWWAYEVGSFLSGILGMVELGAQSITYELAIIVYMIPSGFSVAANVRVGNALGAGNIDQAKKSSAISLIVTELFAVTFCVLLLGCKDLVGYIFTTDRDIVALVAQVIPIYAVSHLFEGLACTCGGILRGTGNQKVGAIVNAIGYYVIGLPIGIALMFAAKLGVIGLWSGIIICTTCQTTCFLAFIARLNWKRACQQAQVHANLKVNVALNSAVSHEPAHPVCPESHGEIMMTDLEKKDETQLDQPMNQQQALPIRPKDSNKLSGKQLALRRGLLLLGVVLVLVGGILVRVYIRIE
Experimental: as §1, §2

[7] = Murine plasma pharmacokinetics of total platinum; format: in vivo, mouse
Description: For pharmacokinetic studies, plasma and tissue samples were collected from male wild-type mice (8–12 weeks old), and age-matched MATE1-deficient [MATE1(−/−)] mice, and mice additionally deficient for OCT1 and OCT2 [OCT1/2/MATE1(−/−)], following an established protocol. All animals were backcrossed on an FVB strain, were given a standard diet and water ad libitum, and housed and handled in accordance with the University Laboratory Animal Resources (ULAR) Animal Care and Use Committee at The Ohio State University (2015A00000101-R1). […] Concentrations of total platinum in plasma and tissues were measured by flameless atomic absorption spectrometry, as previously reported, by interpolation of unknown readings on linear calibration curves prepared in drug-free nitric acid (0.2%) using linear-least squares regression analysis.

[8] = Human plasma pharmacokinetics of total platinum, patient with colorectal cancer; format: in vivo; settings: oxaliplatin 85 mg/m2 i.v. infusion
Experimental: In order to assess the degree of MATE1 inhibition by dasatinib, analyses of N-methylnicotinamide (see below) were performed in plasma samples collected at serial time points (up to 24 h after the end of infusion). Plasma samples were also subjected to dasatinib analysis by liquid chromatography with tandem mass spectrometric detection (LC-MS/MS) and analyzed for total platinum levels by flameless atomic absorption spectrometry. The study protocol (ClinicalTrial.gov Identifier: NCT04164069) was approved by the institutional review board of the -The Ohio State University Comprehensive Cancer Center (OSU IRB #2019C0141, approval date 01 March 2019), and the patient provided written informed consent prior to enrollment.

[9] = Urinary excretion of oxaliplatin in mice (metabolic cages); format: in vivo, mouse; settings: mice deficient in MATE1 or both OCT2 and MATE1 vs wild-type; oxaliplatin 10 mg/kg i.p.
[10] = cited from earlier work
[11] = HEK293 cells overexpressing human MATE1, pH 7.4, probe [14C]TEA (tetraethylammonium), 2 µM
[12] = publicly available information, ref FDA/EMA or supplement refs 1-8
[13] = Mouse IC50, HEK293 cells overexpressing mouse MATE1
[14] = OCT1,2/MATE1-/- mice + dasatinib 15 mg/kg p.o. pretreatment, oxaliplatin 10 mg/kg i.p.
[15] = OCT1,2/MATE1-/- mice, cisplatin 15 mg/kg i.p. or oxaliplatin 10 mg/kg i.p.
[16] = wild-type mice + dasatinib 15 mg/kg p.o. pretreatment, oxaliplatin 10 mg/kg i.p.
[17] = wild-type mice, cisplatin 15 mg/kg i.p. or oxaliplatin 10 mg/kg i.p.
[18] = dasatinib pre-treatment 100 mg p.o.

- inhibition of MATE1-mediated uptake of TEA (in words) (MATE1 [1]): potently inhibiting
- inhibition at 10 µM (MATE1 [1]; [11]): 99.2%
- influence on OCT2 function (in words) (human OCT2): potently inhibiting
Compound: COc1cc(Nc2c(C#N)cnc3cc(OCCCN4CCN(C)CC4)c(OC)cc23)c(Cl)cc1Cl [Bosutinib]
- IC50 (MATE1 [2]; [12]): < 10 µM

Compound: Cc1nc(Nc2ncc(C(=O)Nc3c(C)cccc3Cl)s2)cc(N2CCN(CCO)CC2)n1 [Dasatinib]
- inhibition of MATE1-mediated uptake of TEA (in words) (MATE1 [1]): completely inhibited
- inhibition at 10 µM (MATE1 [1]; [11]): 95.4%
- expression of MATE1 (in words) (MATE1 gene): downregulated
- suppression of MATE1 gene expression (MATE1 gene): ~ 50%
- ability of cells to transport oxaliplatin after dasatinib pre-treatment (in words) [3]: dramatically impaired
- ability of cells to transport oxaliplatin after dasatinib pre-treatment (in words) [4]: dramatically impaired
- plasma levels of NMN (in words) (MATE1 [5]): transient, statistically significant increase

Compound: C=CC(=O)N1CCC[C@@H](n2nc(-c3ccc(Oc4ccccc4)cc3)c3c(N)ncnc32)C1 [Ibrutinib]
- IC50 (MATE1 [1]): 1.03 µM
- inhibition at 10 µM (MATE1 [1]; pH 7.4): 91.8%
- IC50 (mouse MATE1): 51.5 µM

Compound: Cc1cn(-c2cc(NC(=O)c3ccc(C)c(Nc4nccc(-c5cccnc5)n4)c3)cc(C(F)(F)F)c2)cn1 [Nilotinib]
- inhibition at 10 µM (MATE1 [1]; [11]): 95.7%
- IC50 (mouse MATE1; [13]): 45.4 µM and 45.3 µM
- expression of MATE1 (in words) (MATE1 gene): downregulated

Compound: O=C1[O][Pt]2([NH][C@@H]3CCCC[C@H]3[NH]2)[O]C1=O [Oxaliplatin]
- AUC [7, 14]: 7530 ± 900 ng·h/mL
- Cmax [7, 14]: 3860 ± 10 ng/mL
- AUC [7, 15]: 10500 ± 10 ng·h/mL
- Cmax [7, 15]: 3610 ± 180 ng/mL
- AUC [7, 16]: 12200 ± 710 ng·h/mL
- Cmax [7, 16]: 4800 ± 10 ng/mL
- plasma pharmacokinetic profile after dasatinib pretreatment (in words) ([7]; wild-type mice, single dose of dasatinib 15 mg/kg): unchanged
- AUC [7, 17]: 10700 ± 1000 ng·h/mL
- Cmax [7, 17]: 2760 ± 40 ng/mL
- AUC [8, 18]: 11600 ng·h/mL
- Cmax [8, 18]: 870 ng/mL
- AUC ([8]; without dasatinib): 11300 ng·h/mL
- Cmax ([8]; without dasatinib): 960 ng/mL
- reduction of urinary excretion [9]: about 2 fold
- fecal excretion [10]: about 2 % of the dose
- urinary excretion [10]: > 50 % of the dose

- inhibition at 10 µM (MATE1 [1]; [11]): 72.1%
- influence on OCT2 function (in words) (human OCT2): no influence
Compound: CNC(=O)c1cc(Oc2ccc(NC(=O)Nc3ccc(Cl)c(C(F)(F)F)c3)c(F)c2)ccn1 [Regorafenib]
- IC50 (MATE1 [2]; [12]): < 10 µM

Compound: CNC(=O)c1cc(Oc2ccc(NC(=O)Nc3ccc(Cl)c(C(F)(F)F)c3)cc2)ccn1 [Sorafenib]
- inhibition at 10 µM (MATE1 [1]; [11]): 83.8%
- influence on OCT2 function (in words) (human OCT2): no influence

Compound: CCN(CC)CCNC(=O)c1c(C)[nH]c(/C=C2\C(=O)Nc3ccc(F)cc32)c1C [Sunitinib]
- inhibition of MATE1-mediated uptake of TEA (in words) (MATE1 [1]): potently inhibiting
- inhibition at 10 µM (MATE1 [1]; pH 7.4): 98%
- influence on OCT2 function (in words) (human OCT2): potently inhibiting

- IC50 (mouse MATE1; [13]): > 50 µM
Compound: CN/C(=N/CCSCc1nc[nH]c1C)NC#N [cimetidine]
